Read-outs that look alike come from different tables or passages of the source.
Assays:
ES2 ovarian cancer cells = experiment: Antiproliferation assays against ES2 cancer cells at different pH values; format: cell-based, human; details: ES2, 2 h, 1 μM
Experimental: For cell experiments, a pH 8 or pH 10 (directly from DMI to DMA conversion) solution of DMA 2/4/6 was sterilized by filtering through a 0.2-micron membrane. […] At this point, small amounts of 10 (or 25) mM of sterile aq.
Antiproliferation assays against ES2 cancer cells at different pH values. […] Treatment solution volume was 50-100 μL per well, with a set volume per well for all wells in a plate.

[1] = test system: NIH:OVCAR3 human ovarian cancer cells
Experimental: (§1) pH-dependent anti-proliferation assays with cells. In 96-well plates, ˜3,000 cells were seeded per well then grown for 24-48 hr until 30-40% confluency. […] For serum effect cell plate data shown in FIG. 5I, cell viability was measured using alamar Blue assay (i.e., growth media was replaced with 45 μL of pH 7.4 DMEM/F-12 media without phenol red, 5 μL of alamar Blue reagent (10×) was added; fluorescence at 590 nm was recorded after excitation at 560 nm at 1 hr afterwards).
(§2) The reaction solution was allowed to stand at rt for 1 hr in the dark, during which the pH decreased to ˜9.6. After 1 hr, the reaction solution was split into two 50-μL portions (for pH 7.4 vs. pH 6.2-6.8 cell experiments). The pH of one portion was adjusted to pH 8 (for pH 7.4 cell experiments) or pH 7 (for pH 6.2-6.8 cell experiments). Subsequently, the solution was diluted 30-fold (to 10 μM) with pH 7.4 or pH 6.2-6.8 cell media (final volume 1.5 mL) and then filtered (0.2 micron) before used in cell experiments.

ES2 cells = experiment: Imaging studies (confocal microscopy); format: cell-based, human; details: ES2, 1 h
Experimental: Afterwards, the treatment solution was removed; the nuclei of the cells were labeled with staining dye Hoechst 33342; and then images were taken on a scanning confocal microscope.
Imaging studies (confocal microscopy). Approximately 8,000 ES2 cells were seeded on a colIagen-coated glass dish (MatTek Corporation, part No. P35GCOL-0-10-C) and cultured in McCoy's 5A medium with 10% fetal bovine serum and 1% penicillin-streptomycin at 37° C. in the incubator (5% CO2) overnight. […] After treatment solution was removed, the cells were washed 1× with 100 μL of DMEM/F12 pH-specific media. Prior to fluorescence imaging, the nuclei of cells were stained with 1 μg/mL Hoechst 33342 in PBS for 20 min at 37° C. in the incubator. Afterwards, cells stayed in pH-specific DMEM/F12 media during imaging. […] The images in FIGS. 33-36 were processed using LAS X and ImageJ.

[2] = test system: MDA-MB-231 human breast cancer cells; details: 3 μM
Experimental: as §1, §2

[3] = test system: noncancerous kidney epithelial HK2 cells; experiment: Cytotoxicity assays with noncancerous HK2 kidney cells; format: cell-based, human
Experimental: Cytotoxicity assays with noncancerous HK2 kidney cells. […] Dox and DMA prodrug experiments were carried out on separate plates. […] The cell viability in vehicle (buffer/DMSO) negative control treatment groups were treated as 100% during normalization of data.

[4] = test system: PC-3 human prostate cancer cells; details: FIG. 9B, PC3, […], 4 μM
Experimental: as §1, §2

[5] = cancer patients, two hours afterwards; cited from earlier work
[6] = test system: ES-2 human ovarian cancer cells; experiment: pH-dependent anti-proliferation assay (MTS; alamar Blue for FIG. 7I); details: for Cell Viability Average (Avg): FIG. 7A, ES-2, 6 hr
Description: pH-dependent anti-proliferation assays with cells.
NaOH to adjust the pH to 9.9.

[7] = test system: SKOV3 human ovarian cancer cells; details: FIG. 9A, 4 μM
Experimental: as §1, §2

COc1cccc2c1C(=O)c1c(O)c3c(c(O)c1C2=O)C[C@@](O)(C(=O)CO)C[C@@H]3O[C@H]1C[C@H](N)[C@H](O)[C@H](C)O1 [Dox, doxorubicin]
viability (ES2 ovarian cancer cells; pH 6.6-6.8): 60-70%
viability (ES2 ovarian cancer cells; FIG. 29A, pH 6.7): 60-70%
viability (ES2 ovarian cancer cells; FIG. 29A, pH 7.5): 28%
viability (ES2 ovarian cancer cells; FIG. 31A, pH 6.5-6.8): 40-60%
viability (ES2 ovarian cancer cells; FIG. 31A, pH 7.5): ~20%
Cell Viability Avg ([1]; FIG. 7C, OVCAR3, 2 hr, 3 μM, pH 6.3-6.4): 57%
Cell Viability Avg ([1]; FIG. 7C, OVCAR3, 2 hr, 3 μM, pH 7.4-7.6): 24%
Cell Viability Avg ([1]; FIG. 7G, OVCAR3, 2 hr, 2 μM, pH 6.2-6.4): 60%
Cell Viability Avg ([1]; FIG. 7G, OVCAR3, 2 hr, 2 μM, pH 6.4-6.5): 55%
Cell Viability Avg ([1]; FIG. 7G, OVCAR3, 2 hr, 2 μM, pH 6.6-6.7): 58%
Cell Viability Avg ([1]; FIG. 7G, OVCAR3, 2 hr, 2 μM, pH 6.8-6.9): 46%
Cell Viability Avg ([1]; FIG. 7G, OVCAR3, 2 hr, 2 μM, pH 7.1-7.3): 51%
Cell Viability Avg ([1]; FIG. 7G, OVCAR3, 2 hr, 2 μM, pH 7.2-7.5): 48%
Cell Viability Avg ([1]; FIG. 10A, OVCAR3, 6 hr, 1 μM, pH 6.5-6.7): 81%
Cell Viability Avg ([1]; FIG. 10A, OVCAR3, 6 hr, 1 μM, pH 7.3-7.6): 51%
distribution of Dox fluorescence within cells (ES2 cells): within the nuclei
Dox fluorescence signals in cells, pH 6.7 vs. 7.7 (ES2 cells; 4 μM Dox or 8 μM prodrug/DMI): More Dox fluorescence signals were observed at pH 7.7 than 6.7
Cell Viability Avg ([2]; FIG. 7B, MDA-MB231, 2 hr, pH 6.3-6.4): 30%
Cell Viability Avg ([2]; FIG. 7B, MDA-MB231, 2 hr, pH 7.6-7.7): 15%
Cell Viability Avg ([2]; FIG. 7F, MDA-MB231, […], pH 6.3-6.4): 30%
Cell Viability Avg ([2]; FIG. 7F, MDA-MB231, […], pH 6.5): 29%
Cell Viability Avg ([2]; FIG. 7F, MDA-MB231, […], pH 6.6-6.7): 36%
Cell Viability Avg ([2]; FIG. 7F, MDA-MB231, […], pH 6.9-7.0): 30%
Cell Viability Avg ([2]; FIG. 7F, MDA-MB231, […], pH 7.2-7.3): 29%
Cell Viability Avg ([2]; FIG. 7F, MDA-MB231, […], pH 7.5-7.7): 31%
viability ([3]; FIG. 29B, HK2, pH 7.4, 30 μM): 21%
cells killed ([3]; FIG. 30B, HK2, pH 7.4, 1 μM): 20%
viable cells ([3]; FIG. 30B, HK2, pH 7.4, 30 μM): 31%
cells killed ([3]; FIG. 31B, HK2, pH 7.4, 30 μM): > 80%
Cell Viability Avg ([4]; pH 6.3-6.4): 53%
Cell Viability Avg ([4]; pH 7.5-7.6): 15%
intratumoral concentration [5]: 0.5 to 5 mM
Cell Viability Average (Avg) ([6]; 0.5 μM, pH 6.6-6.8): 32%
Cell Viability Average (Avg) ([6]; 0.5 μM, pH 7.2-7.5): 16%
Cell Viability Avg ([6]; FIG. 7E, ES2, […], 1 μM, pH 6.3-6.4): 43%
Cell Viability Avg ([6]; FIG. 7E, ES2, […], 1 μM, pH 6.5): 49%
Cell Viability Avg ([6]; FIG. 7E, ES2, […], 1 μM, pH 6.7-6.8): 44%
Cell Viability Avg ([6]; FIG. 7E, ES2, […], 1 μM, pH 6.8-6.9): 42%
Cell Viability Avg ([6]; FIG. 7E, ES2, […], 1 μM, pH 7.2): 25%
Cell Viability Avg ([6]; FIG. 7E, ES2, […], 1 μM, pH 7.2-7.4): 23%
Cell Viability Avg ([6]; FIG. 7I, ES2, FBS(50%), 1 μM, pH 6.5-6.9): 71%
Cell Viability Avg ([6]; FIG. 7I, ES2, FBS(50%), 1 μM, pH 7.2-7.7): 36%
Cell Viability Avg ([6]; FIG. 7I, ES2, no FBS, 1 μM, pH 6.5-6.9): 77%
Cell Viability Avg ([6]; FIG. 7I, ES2, no FBS, 1 μM, pH 7.2-7.7): 48%
Cell Viability Avg ([6]; FIG. 8A, ES2, 0.1 μM, pH 6.6-6.7): 87%
Cell Viability Avg ([6]; FIG. 8A, ES2, 0.1 μM, pH 7.5-7.6): 62%
Cell Viability Avg ([6]; FIG. 8A, ES2, 0.3 μM, pH 6.6-6.7): 72%
Cell Viability Avg ([6]; FIG. 8A, ES2, 0.3 μM, pH 7.5-7.6): 33%
Cell Viability Avg ([6]; FIG. 8A, ES2, 1 μM, pH 6.6-6.7): 35%
Cell Viability Avg ([6]; FIG. 8A, ES2, 1 μM, pH 7.5-7.6): 15%
Cell Viability Avg ([6]; FIG. 8A, ES2, 3 μM, pH 6.6-6.7): 21%
Cell Viability Avg ([6]; FIG. 8A, ES2, 3 μM, pH 7.5-7.6): 2%
Cell Viability Avg ([6]; FIG. 8B, ES2, 2 hr, 1 μM, pH 6.6-6.8): 44%
Cell Viability Avg ([6]; FIG. 8B, ES2, 2 hr, 1 μM, pH 7.2-7.6): 23%
Cell Viability Avg ([6]; FIG. 8B, ES2, 6 hr, 0.5 μM, pH 6.6-6.8): 32%
Cell Viability Avg ([6]; FIG. 8B, ES2, 6 hr, 0.5 μM, pH 7.2-7.6): 16%
Cell Viability Avg ([6]; FIG. 8B, ES2, 12 hr, 0.5 μM, pH 6.6-6.8): 47%
Cell Viability Avg ([6]; FIG. 8B, ES2, 12 hr, 0.5 μM, pH 7.2-7.6): 13%
Cell Viability Avg ([6]; FIG. 8B, ES2, 24 hr, 1 μM, pH 6.6-6.8): 35%
Cell Viability Avg ([6]; FIG. 8B, ES2, 24 hr, 1 μM, pH 7.2-7.6): 15%
Cell Viability Avg ([6]; FIG. 10B, ES2, 12 hr, 0.5 μM, pH 6.6-6.7): 47%
Cell Viability Avg ([6]; FIG. 10B, ES2, 12 hr, 0.5 μM, pH 7.4-7.6): 13%
Cell Viability Avg ([7]; pH 6.3-6.5): 39%
Cell Viability Avg ([7]; pH 7.5-7.6): 22%
